Measured values from PubChem BioAssay (NCI).
Where “and” joins values, the source holds several entries; their conditions need not be identical. Equal values may be shown once.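 Step 1: Grow cells in 96-well plates. Step 2: Expose to compound for 48 hours at 5 concentrations. Step 3: Interpolate endpoints linearly; if unreached, use highest concentration. At the GI50, growth is halved. TGI marks complete inhibition of growth.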

Key:
Assay in all cases: NCI-60 cell line screen, 48 h
COLO 205 colon = system: COLO 205 colon
DU-145 prostate = system: DU-145 prostate
SNB-19 CNS = system: SNB-19 CNS
NCI-H460 lung = system: NCI-H460 lung
ACHN renal = system: ACHN renal
MOLT-4 leukemia = system: MOLT-4 leukemia
NCI-H226 lung = system: NCI-H226 lung
U251 CNS = system: U251 CNS
SK-OV-3 ovarian = system: SK-OV-3 ovarian
UACC-257 melanoma = system: UACC-257 melanoma
HS 578T breast = system: HS 578T breast
SF-268 CNS = system: SF-268 CNS
A549 NSCLC = system: A549 NSCLC
OVCAR-5 ovarian = system: OVCAR-5 ovarian
HCC-2998 colon = system: HCC-2998 colon
PC-3 prostate = system: PC-3 prostate
CCRF-CEM leukemia = system: CCRF-CEM leukemia
TK-10 renal = system: TK-10 renal
NCI-H23 lung = system: NCI-H23 lung
T-47D breast = system: T-47D breast
SR leukemia = system: SR leukemia
K-562 leukemia = system: K-562 leukemia
786-0 renal = system: 786-0 renal
SW-620 colon = system: SW-620 colon
MDA-MB-231 breast = system: MDA-MB-231 breast
MALME-3M melanoma = system: MALME-3M melanoma
NCI/ADR-RES ovarian = system: NCI/ADR-RES ovarian

For `CC(C)C[C@H](NC(=O)[C@@H]1CCCCCCCCCCC(=O)N[C@@H](CC(=O)N2CCC[C@@H]2C2CCCC2)C(=O)N1)B(O)O`, the TGI (COLO 205 colon) was 20.2 nM and 18 nM, the GI50 (DU-145 prostate) was 8.46 nM and the TGI (DU-145 prostate) was 37000 nM. The GI50 (SNB-19 CNS) was 3.67 nM, the GI50 (NCI-H460 lung) was 8.62 nM and the TGI (NCI-H460 lung) was 43.6 nM and 40.5 nM. For the same molecule, the GI50 (ACHN renal) was 58.5 nM and 25.9 nM, the TGI (ACHN renal) was 5940 nM and the GI50 (MOLT-4 leukemia) was 3.4 nM. It also gave a TGI (MOLT-4 leukemia) of 8480 nM, a GI50 (NCI-H226 lung) of 3.97 nM and a TGI (NCI-H226 lung) of 17.2 nM. For the same molecule, the GI50 (U251 CNS) was 3.92 nM, the TGI (U251 CNS) was 17.8 nM and 72.9 nM and the GI50 (SK-OV-3 ovarian) was 4.43 nM. For the same molecule, the TGI (SK-OV-3 ovarian) was 23.6 nM and 15.9 nM, the GI50 (UACC-257 melanoma) was 3.76 nM and the TGI (UACC-257 melanoma) was 289 nM and 1200 nM. For the same molecule, the GI50 (HS 578T breast) was 4.22 nM, the TGI (HS 578T breast) was 94 nM and the GI50 (SF-268 CNS) was 4.46 nM. The TGI (SF-268 CNS) was 46.6 nM, the GI50 (A549 NSCLC) was 7.11 nM and the TGI (A549 NSCLC) was 4570 nM. It also gave a GI50 (OVCAR-5 ovarian) of 2.89 nM, a TGI (OVCAR-5 ovarian) of 11.9 nM and a GI50 (HCC-2998 colon) of 1.83 nM. The TGI (HCC-2998 colon) was 3.32 nM, the GI50 (PC-3 prostate) was 4.61 nM and the TGI (PC-3 prostate) was 96.4 nM and 59.3 nM. For the same molecule, the GI50 (CCRF-CEM leukemia) was 2.87 nM, the GI50 (TK-10 renal) was 41 nM and 37.3 nM and the TGI (TK-10 renal) was 208 nM and 462 nM. It also gave a GI50 (NCI-H23 lung) of 2.15 nM, a TGI (NCI-H23 lung) of 5.11 nM and a GI50 (T-47D breast) of 1.99 nM. It also gave a TGI (T-47D breast) of 5.29 nM, a GI50 (SR leukemia) of 3.81 nM and a TGI (SR leukemia) greater than 100000 nM. For the same molecule, the GI50 (K-562 leukemia) was 4.56 nM, the TGI (K-562 leukemia) was greater than 100000 nM and the GI50 (786-0 renal) was 24.9 nM and 21.8 nM. The TGI (786-0 renal) was 173 nM and 168 nM, the GI50 (SW-620 colon) was 4.09 nM and the TGI (SW-620 colon) was 42 nM and 25.4 nM. The GI50 (MDA-MB-231 breast) was 1.87 nM, the TGI (MDA-MB-231 breast) was 3.81 nM and the GI50 (MALME-3M melanoma) was 1.64 nM. The TGI (MALME-3M melanoma) was 3.71 nM and 23.8 nM, the GI50 (NCI/ADR-RES ovarian) was 1970 nM and the TGI (NCI/ADR-RES ovarian) was 5900 nM.
